Assay results: article PMC12491383, “Organ and tumour dosimetry of ^177Lu-rhPSMA-10.1, a novel PSMA-targeted therapy: results from a Phase I trial” (European Journal of Nuclear Medicine and Molecular Imaging, 2025)
Values joined by “and” are separate entries in the source; they are usually repeats but may differ in a detail not shown here. Equal entries are not always repeated.

Key:
[1] = parameters: method as in PMID 37770108; details: within the same patient; compassionate use program in Germany; cited from earlier work
[2] = Image-based effective and biological half-lives (mono-exponential fit to washout phase); assay type: in vivo, human; details: all cycles; for Biological Half-life, Tumours / Effective Half-life, Tumours: anatomy-based method
Description: (§1) Multi-bed single-photon emission computed tomography (SPECT)/CT was conducted at 3-, 24-, 48- and 168-hours post-^177Lu-rhPSMA-10.1 administration in each treatment cycle for the estimation of organ and tumour absorbed doses in each patient. Prior to commencement of the study, each investigating site was required to complete a calibration of their dose calibrator and SPECT/CT system to ensure harmonised quantification of the imaging data. Quantitative reconstructions and all dosimetry analyses were carried out centrally by an independent dosimetry vendor (Radiopharmaceutical Imaging and Dosimetry LLC, Baltimore, MD).
(§2) All continuous data are expressed as the mean (standard deviation [SD]) unless otherwise stated. All blood- and image-based pharmacokinetic analyses were conducted in Python and Excel. Effective half-lives for organs and tumours were calculated using a mono-exponential fit to the washout phase of the time–activity data.
Based on exponential fits to image-derived time–activity washout data in individual tissues (Fig. 5), the biological and effective half-lives of ^177Lu-rhPSMA-10.1 in tumours and normal organs were estimated using the mean data from all patients across all cycles (Supplemental Table S3).
^aTumour half-life values were derived from the anatomy-based method and averaged across all tumours and cycles (n = 137).

[3] = Venous whole-blood radioactivity measurement (gamma counter): blood clearance and red marrow absorbed dose; assay type: in vivo, human
Description: To assess the biodistribution and kinetics of radioactivity in individual tissues, whole blood and imaging-based radiation dosimetry were performed. Venous blood samples for radioactivity measurement were collected within the 30 min prior to ^177Lu-rhPSMA-10.1 administration, and at approximately 30 min, 1.5-, 4-, 24- and 48-hours post-administration in all treatment cycles. Samples were collected from the contralateral arm to that of the ^177Lu-rhPSMA-10.1 injection. Whole-blood concentrations were measured using a calibrated gamma counter to estimate both red marrow absorbed doses and blood clearance over time. All measurements were decay-corrected to the time of sample collection.
as §2

[4] = Tumour dosimetry by SPECT/CT, activity-based and anatomy-based tumour selection and delineation; assay type: in vivo, human; details: for Tumour absorbed dose lower than Cycle 1 value, on average: anatomy-based
Description: as §1
The specific absorbed doses (Gy/GBq) in normal organs and tumours were determined using the Medical Internal Radiation Dose (MIRD) Committee S-value methodology. Individual patient organ masses, determined via CT delineation, were scaled to reflect deviations from reference phantom geometry. Cumulative organ absorbed doses (Gy) were calculated across all treatment cycles. Further details on dosimetry methodology are provided in the supplemental materials and have been reported in accordance with EANM guidance.
Approach one was an activity-based method equivalent to that used in most studies that have evaluated tumour dosimetry with ^177Lu-labelled PSMA RLT [28]. For this method, up to three tumours were selected according to their relative visual uptake on the 168-hour SPECT/CT. Lesion contouring for volume/mass was performed based on a 41% SUVmax threshold on the corresponding PSMA PET/CT. These contours were manually transferred onto the SPECT images, making minor adjustments where necessary to the contour margins accounting for any activity spill out on the SPECT. This is illustrated in Supplemental Figure S1. The second method was anatomy-based, with up to five tumours selected in a blinded fashion on CT according to RECIST v1.1 criteria. Lesion volume and mass were determined via manual contouring on the CT and then directly transferred to the SPECT images. Where a common lesion was selected across both methods, the difference in tumour volume resulting from the two contouring methods was calculated.
For the Cycle 1 tumour dosimetry, 36 lesions (27 bone and 9 lymph nodes) were analysed using the activity-based method, while 51 lesions (39 bone and 12 lymph nodes) were evaluated using the anatomy-based method. […] For each method, the mean tumour dose was determined by averaging the maximum tumour dose across all patients.

For `CC(C)(C)[Si](F)(c1ccc(C(=O)NC[C@@H](NC(=O)CN2CCN(CC(=O)[O-])CCN(CC(=O)[O-])CCN(CC(=O)[O-])CC2)C(=O)N[C@H](CCCCNC(=O)CCC(=O)NCCC[C@@H](NC(=O)CC[C@H](NC(=O)N[C@@H](CCC(=O)O)C(=O)O)C(=O)O)C(=O)O)C(=O)O)cc1)C(C)(C)C.[177Lu+3]` [^177Lu-rhPSMA-10.1], the “Radiation dose to the tumour relative to ^177Lu-PSMA-I&T, fold greater” value [1] is listed as “up to 8 fold”, the “Biological Half-life, Kidneys” value ([2]; Mean of 13 patients) is listed as 44.9 hours and the “Biological Half-life, Salivary Glands” value ([2]; Mean of 13 patients) is listed as 64.6 hours. For the same molecule, the “Effective Half-life, Kidneys” value ([2]; Mean of 13 patients) was 33.7 h, the “Effective Half-life, Salivary Glands” value ([2]; Mean of 13 patients) was 45.4 h and the “Biological Half-life, Tumours” value ([2]; Mean of 13 patients) was 338 hours and 337.8 hours. The “Effective Half-life, Tumours” value ([2]; Mean of 13 patients) was 91.4 h and 91 h, the “Biological Half-life, Kidneys” value ([2]; Patient 1) was 123.6 hours and the “Biological Half-life, Salivary Glands” value ([2]; Patient 1) was 120.2 hours. For the same molecule, the “Effective Half-life, Kidneys” value ([2]; Patient 1) was 69.6 h, the “Effective Half-life, Salivary Glands” value ([2]; Patient 1) was 68.6 h and the “Biological Half-life, Tumours” value ([2]; Patient 1) was 1692.5 hours. For the same molecule, the “Effective Half-life, Tumours” value ([2]; Patient 1) was 145.8 h, the “Biological Half-life, Kidneys” value ([2]; Patient 2) was 52.3 hours and the “Biological Half-life, Salivary Glands” value ([2]; Patient 2) was 54.2 hours. The “Effective Half-life, Kidneys” value ([2]; Patient 2) was 39.4 h, the “Effective Half-life, Salivary Glands” value ([2]; Patient 2) was 40.5 h and the “Biological Half-life, Tumours” value ([2]; Patient 2) was 68.8 hours. For the same molecule, the “Effective Half-life, Tumours” value ([2]; Patient 2) was 48.1 h, the “Biological Half-life, Kidneys” value ([2]; Patient 3) was 47.5 hours and the “Biological Half-life, Salivary Glands” value ([2]; Patient 3) was 67.5 hours. The “Effective Half-life, Kidneys” value ([2]; Patient 3) was 36.6 h, the “Effective Half-life, Salivary Glands” value ([2]; Patient 3) was 47.4 h and the “Biological Half-life, Tumours” value ([2]; Patient 3) was 305.1 hours. The “Effective Half-life, Tumours” value ([2]; Patient 3) was 104.8 h, the “Biological Half-life, Kidneys” value ([2]; Patient 4) was 35.9 hours and the “Biological Half-life, Salivary Glands” value ([2]; Patient 4) was 84.7 hours. For the same molecule, the “Effective Half-life, Kidneys” value ([2]; Patient 4) was 29.3 h, the “Effective Half-life, Salivary Glands” value ([2]; Patient 4) was 55.3 h and the “Biological Half-life, Tumours” value ([2]; Patient 4) was 124.9 hours. For the same molecule, the “Effective Half-life, Tumours” value ([2]; Patient 4) was 70.1 h, the “Biological Half-life, Kidneys” value ([2]; Patient 5) was 34.6 hours and the “Biological Half-life, Salivary Glands” value ([2]; Patient 5) was 54.0 hours. The “Effective Half-life, Kidneys” value ([2]; Patient 5) was 28.5 h, the “Effective Half-life, Salivary Glands” value ([2]; Patient 5) was 40.3 h and the “Biological Half-life, Tumours” value ([2]; Patient 5) was 168.9 hours. The “Effective Half-life, Tumours” value ([2]; Patient 5) was 82.1 h, the “Biological Half-life, Kidneys” value ([2]; Patient 6) was 38.7 hours and the “Biological Half-life, Salivary Glands” value ([2]; Patient 6) was 61.3 hours. For the same molecule, the “Effective Half-life, Kidneys” value ([2]; Patient 6) was 31.2 h, the “Effective Half-life, Salivary Glands” value ([2]; Patient 6) was 44.3 h and the “Biological Half-life, Tumours” value ([2]; Patient 6) was 282.5 hours. For the same molecule, the “Effective Half-life, Tumours” value ([2]; Patient 6) was 102.0 h, the “Biological Half-life, Kidneys” value ([2]; Patient 7) was 33.9 hours and the “Biological Half-life, Salivary Glands” value ([2]; Patient 7) was 57.1 hours. The “Effective Half-life, Kidneys” value ([2]; Patient 7) was 27.9 h, the “Effective Half-life, Salivary Glands” value ([2]; Patient 7) was 42.1 h and the “Biological Half-life, Tumours” value ([2]; Patient 7) was 316.6 hours. The “Effective Half-life, Tumours” value ([2]; Patient 7) was 106.1 h, the “Biological Half-life, Kidneys” value ([2]; Patient 8) was 34.9 hours and the “Biological Half-life, Salivary Glands” value ([2]; Patient 8) was 61.5 hours. The “Effective Half-life, Kidneys” value ([2]; Patient 8) was 28.6 h, the “Effective Half-life, Salivary Glands” value ([2]; Patient 8) was 44.4 h and the “Biological Half-life, Tumours” value ([2]; Patient 8) was 611.3 hours. The “Effective Half-life, Tumours” value ([2]; Patient 8) was 126.6 h, the “Biological Half-life, Kidneys” value ([2]; Patient 9) was 32.3 hours and the “Biological Half-life, Salivary Glands” value ([2]; Patient 9) was 47.7 hours. For the same molecule, the “Effective Half-life, Kidneys” value ([2]; Patient 9) was 26.8 h, the “Effective Half-life, Salivary Glands” value ([2]; Patient 9) was 36.7 h and the “Biological Half-life, Tumours” value ([2]; Patient 9) was 204.8 hours. The “Effective Half-life, Tumours” value ([2]; Patient 9) was 89.7 h, the “Biological Half-life, Kidneys” value ([2]; Patient 10) was 28.7 hours and the “Biological Half-life, Salivary Glands” value ([2]; Patient 10) was 59.0 hours. For the same molecule, the “Effective Half-life, Kidneys” value ([2]; Patient 10) was 24.3 h, the “Effective Half-life, Salivary Glands” value ([2]; Patient 10) was 43.1 h and the “Biological Half-life, Tumours” value ([2]; Patient 10) was 170.2 hours. For the same molecule, the “Effective Half-life, Tumours” value ([2]; Patient 10) was 82.4 h, the “Biological Half-life, Kidneys” value ([2]; Patient 11) was 35.3 hours and the “Biological Half-life, Salivary Glands” value ([2]; Patient 11) was 61.7 hours. For the same molecule, the “Effective Half-life, Kidneys” value ([2]; Patient 11) was 28.9 h, the “Effective Half-life, Salivary Glands” value ([2]; Patient 11) was 44.5 h and the “Biological Half-life, Tumours” value ([2]; Patient 11) was 148.2 hours. The “Effective Half-life, Tumours” value ([2]; Patient 11) was 76.8 h, the “Biological Half-life, Kidneys” value ([2]; Patient 12) was 54.5 hours and the “Biological Half-life, Salivary Glands” value ([2]; Patient 12) was 53.6 hours. The “Effective Half-life, Kidneys” value ([2]; Patient 12) was 40.6 h, the “Effective Half-life, Salivary Glands” value ([2]; Patient 12) was 40.1 h and the “Biological Half-life, Tumours” value ([2]; Patient 12) was 152.4 hours. The “Effective Half-life, Tumours” value ([2]; Patient 12) was 78.0 h, the “Biological Half-life, Kidneys” value ([2]; Patient 13) was 31.6 hours and the “Biological Half-life, Salivary Glands” value ([2]; Patient 13) was 57.8 hours. The “Effective Half-life, Kidneys” value ([2]; Patient 13) was 26.4 h, the “Effective Half-life, Salivary Glands” value ([2]; Patient 13) was 42.4 h and the “Biological Half-life, Tumours” value ([2]; Patient 13) was 145.7 hours. The “Effective Half-life, Tumours” value ([2]; Patient 13) was 76.2 h, the “Mean (SD) Absorbed Dose, bone marrow (blood-based)” value ([3]; All Cycles) was 0.032 Gy/GBq and 0.032 (0.010) Gy/GBq and the “Mean (SD) Absorbed Dose, bone marrow (blood-based)” value ([3]; Cycle 1, 13 patients) was 0.031 (0.010) Gy/GBq. For the same molecule, the “Effective half-life in blood” value ([3]; venous whole blood, based on mean patient levels, mean (SD)) was 2.2 h, the “Tumour absorbed dose lower than Cycle 1 value, on average” value ([4]; Cycle 2, 11 patients with multiple cycles) was ~ 37% and 37% and the “Tumour absorbed dose lower than Cycle 1 value, on average” value ([4]; Cycle 3) was ~ 56% and 56%. For the same molecule, the “Maximum tumour absorbed dose, range across patients” value ([4]; activity method, Cycle 1) was 2.00–25.7 Gy/GBq, the “Mean (SD) maximum tumour absorbed dose” value ([4]; activity method, Cycle 1) was 8.87 Gy/GBq and 8.87 (6.71) Gy/GBq and the “Mean therapeutic index, ratio of tumour-to-kidney absorbed doses” value ([4]; activity method, Cycle 1) was 32.1. For the same molecule, the “Mean tumour-to-salivary gland absorbed dose ratio” value ([4]; activity method, Cycle 1) was 73.2, the “Maximum tumour absorbed dose, range across patients” value ([4]; anatomy method, Cycle 1) was 0.37–6.67 Gy/GBq and the “Mean (SD) maximum tumour absorbed dose” value ([4]; anatomy method, Cycle 1) was 2.38 (1.78) Gy/GBq and 2.38 Gy/GBq.
